Measurements as given in ChEMBL document CHEMBL1201862, “PubChem BioAssay data set” (2004).
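In this assay, cells in 96-well plates receive the compound at five concentrations for 48 hours. Endpoints are linearly interpolated between the surrounding concentrations. Here, GI50 denotes the concentration required for 50% inhibition of growth.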 Active and inactive are the calls of the source. Rule as the data show it: active = GI50 up to about 1.1 µM and inactive = higher.

Columns and labels:
Test in all cases: DTP human tumour cell line panel, 48 h
SN12C = test system: SN12C
XF498 = test system: XF498
SNB-75 = test system: SNB-75
SK-MEL-28 = test system: SK-MEL-28
OVCAR-5 = test system: OVCAR-5
UACC-62 = test system: UACC-62
SW-620 = test system: SW-620
Malme-3M = test system: Malme-3M
SF-268 = test system: SF-268
HT-29 = test system: HT-29
SNB-19 = test system: SNB-19
KM12 = test system: KM12
COLO 205 = test system: COLO 205
EKVX = test system: EKVX
HOP-18 = test system: HOP-18
TK-10 = test system: TK-10
A549 = test system: A549
A498 = test system: A498
RXF 393 = test system: RXF 393
DLD-1 = test system: DLD-1
OVCAR-3 = test system: OVCAR-3
IGROV-1 = test system: IGROV-1
KM-20L2 = test system: KM-20L2
DMS-273 = test system: DMS-273
M14 = test system: M14
HOP-92 = test system: HOP-92
LOX IMVI = test system: LOX IMVI
SK-OV-3 = test system: SK-OV-3
NCI-H226 = test system: NCI-H226
HOP-62 = test system: HOP-62
NCI-H23 = test system: NCI-H23
SF-539 = test system: SF-539
HCC 2998 = test system: HCC 2998
NCI-H460 = test system: NCI-H460
SF-295 = test system: SF-295
UO-31 = test system: UO-31
M19-MEL = test system: M19-MEL
OVCAR-8 = test system: OVCAR-8
LXFL 529 = test system: LXFL 529
SNB-78 = test system: SNB-78
UACC-257 = test system: UACC-257
RPMI-8226 = test system: RPMI-8226
HCT-15 = test system: HCT-15
DMS-114 = test system: DMS-114
CAKI-1 = test system: CAKI-1
SK-MEL-5 = test system: SK-MEL-5
OVCAR-4 = test system: OVCAR-4
RXF 631 = test system: RXF 631
ACHN = test system: ACHN
786-0 = test system: 786-0
NCI-H522 = test system: NCI-H522
HCT-116 = test system: HCT-116
U-251 = test system: U-251

O=C(/C=C/c1ccc(Cl)c(Cl)c1)C1CCC(Cl)CC1 (stereo not drawn)
GI50 (SN12C): 17.7 µM (inactive)
GI50 (XF498): 16 µM (inactive)
GI50 (SNB-75): 19.8 µM (inactive)
GI50 (SK-MEL-28): 17.5 µM (inactive)
GI50 (OVCAR-5): 17.4 µM (inactive)
GI50 (UACC-62): 17 µM (inactive)
GI50 (SW-620): 16.9 µM (inactive)
GI50 (Malme-3M): 18.5 µM (inactive)
GI50 (SF-268): 19.5 µM (inactive)
GI50 (HT-29): 16.3 µM (inactive)
GI50 (SNB-19): 17.7 µM (inactive)
GI50 (KM12): 19.2 µM (inactive)
GI50 (COLO 205): 21.8 µM (inactive)
GI50 (EKVX): 17.4 µM (inactive)
GI50 (HOP-18): 27.5 µM (inactive)
GI50 (TK-10): 32.7 µM (inactive)
GI50 (A549): 20 µM (inactive)
GI50 (A498): 22.4 µM (inactive)
GI50 (RXF 393): 17.9 µM (inactive)
GI50 (DLD-1): 15.6 µM (inactive)
GI50 (OVCAR-3): 15 µM (inactive)
GI50 (IGROV-1): 17.1 µM (inactive)
GI50 (KM-20L2): 20.7 µM (inactive)
GI50 (DMS-273): 16.8 µM (inactive)
GI50 (M14): 18.5 µM (inactive)
GI50 (HOP-92): 36.7 µM (inactive)
GI50 (LOX IMVI): 16.1 µM (inactive)
GI50 (SK-OV-3): 18.1 µM (inactive)
GI50 (NCI-H226): 31.2 µM (inactive)
GI50 (HOP-62): 57.3 µM (inactive)
GI50 (NCI-H23): 17.9 µM (inactive)
GI50 (SF-539): 18.4 µM (inactive)
GI50 (HCC 2998): 17.2 µM (inactive)
GI50 (NCI-H460): 23.2 µM (inactive)
GI50 (SF-295): 21 µM (inactive)
GI50 (UO-31): 18.4 µM (inactive)
GI50 (M19-MEL): 17.3 µM (inactive)
GI50 (OVCAR-8): 18.8 µM (inactive)
GI50 (LXFL 529): 18.2 µM (inactive)
GI50 (SNB-78): 21.9 µM (inactive)
GI50 (UACC-257): 18.5 µM (inactive)
GI50 (RPMI-8226): 4.69 µM (inactive)
GI50 (HCT-15): 18.2 µM
GI50 (DMS-114): 16.3 µM (inactive)
GI50 (CAKI-1): 21.3 µM (inactive)
GI50 (SK-MEL-5): 18.3 µM (inactive)
GI50 (OVCAR-4): 17 µM (inactive)
GI50 (RXF 631): 18.5 µM (inactive)
GI50 (ACHN): 17.1 µM (inactive)
GI50 (786-0): 16.8 µM (inactive)
GI50 (NCI-H522): 16.7 µM (inactive)
GI50 (HCT-116): 11.8 µM (inactive)
GI50 (U-251): 15.1 µM (inactive)
